Experimental data taken from ChEMBL document CHEMBL5291721, “A preclinical secondary pharmacology resource illuminates target-adverse drug reaction associations of marketed drugs” (Nat Commun, 2023).

Assays:
[1] = target: 5-hydroxytryptamine receptor 2B (Homo sapiens, UniProt P41595); type: functional, cell-based
[2] = target: T1, Alpha-2B adrenergic receptor (Homo sapiens, UniProt P18089)
T1 sequence (P18089 whole entry): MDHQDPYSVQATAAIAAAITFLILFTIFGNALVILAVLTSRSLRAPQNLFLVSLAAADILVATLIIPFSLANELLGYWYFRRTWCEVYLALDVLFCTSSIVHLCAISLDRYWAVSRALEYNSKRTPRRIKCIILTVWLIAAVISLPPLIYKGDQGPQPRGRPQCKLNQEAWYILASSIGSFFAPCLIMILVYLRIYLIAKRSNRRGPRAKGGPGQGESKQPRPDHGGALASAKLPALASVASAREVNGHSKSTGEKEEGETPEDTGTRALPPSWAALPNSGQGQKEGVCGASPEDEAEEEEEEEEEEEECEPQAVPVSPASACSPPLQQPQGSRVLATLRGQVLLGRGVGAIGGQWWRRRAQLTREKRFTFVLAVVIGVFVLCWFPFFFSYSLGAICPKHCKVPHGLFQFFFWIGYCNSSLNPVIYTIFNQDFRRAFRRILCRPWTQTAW

[3] = target: T2, Gastrin/cholecystokinin type B receptor (Homo sapiens, UniProt P32239)
T2 sequence (P32239 whole entry): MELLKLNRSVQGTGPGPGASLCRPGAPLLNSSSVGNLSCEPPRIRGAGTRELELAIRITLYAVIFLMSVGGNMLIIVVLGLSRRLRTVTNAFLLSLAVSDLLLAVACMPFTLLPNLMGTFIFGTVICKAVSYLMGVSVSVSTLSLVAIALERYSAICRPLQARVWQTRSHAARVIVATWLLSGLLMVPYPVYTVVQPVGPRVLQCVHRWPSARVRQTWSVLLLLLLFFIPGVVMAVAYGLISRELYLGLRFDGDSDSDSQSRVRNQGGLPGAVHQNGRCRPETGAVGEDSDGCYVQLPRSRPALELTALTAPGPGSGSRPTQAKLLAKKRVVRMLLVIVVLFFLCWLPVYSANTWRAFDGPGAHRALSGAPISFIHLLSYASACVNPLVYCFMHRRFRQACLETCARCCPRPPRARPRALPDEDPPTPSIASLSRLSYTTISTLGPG

[4] = target: 3',5'-cyclic-AMP phosphodiesterase 4D (Homo sapiens, UniProt Q08499); type: functional
Sequence of 3',5'-cyclic-AMP phosphodiesterase 4D (Q08499 whole entry): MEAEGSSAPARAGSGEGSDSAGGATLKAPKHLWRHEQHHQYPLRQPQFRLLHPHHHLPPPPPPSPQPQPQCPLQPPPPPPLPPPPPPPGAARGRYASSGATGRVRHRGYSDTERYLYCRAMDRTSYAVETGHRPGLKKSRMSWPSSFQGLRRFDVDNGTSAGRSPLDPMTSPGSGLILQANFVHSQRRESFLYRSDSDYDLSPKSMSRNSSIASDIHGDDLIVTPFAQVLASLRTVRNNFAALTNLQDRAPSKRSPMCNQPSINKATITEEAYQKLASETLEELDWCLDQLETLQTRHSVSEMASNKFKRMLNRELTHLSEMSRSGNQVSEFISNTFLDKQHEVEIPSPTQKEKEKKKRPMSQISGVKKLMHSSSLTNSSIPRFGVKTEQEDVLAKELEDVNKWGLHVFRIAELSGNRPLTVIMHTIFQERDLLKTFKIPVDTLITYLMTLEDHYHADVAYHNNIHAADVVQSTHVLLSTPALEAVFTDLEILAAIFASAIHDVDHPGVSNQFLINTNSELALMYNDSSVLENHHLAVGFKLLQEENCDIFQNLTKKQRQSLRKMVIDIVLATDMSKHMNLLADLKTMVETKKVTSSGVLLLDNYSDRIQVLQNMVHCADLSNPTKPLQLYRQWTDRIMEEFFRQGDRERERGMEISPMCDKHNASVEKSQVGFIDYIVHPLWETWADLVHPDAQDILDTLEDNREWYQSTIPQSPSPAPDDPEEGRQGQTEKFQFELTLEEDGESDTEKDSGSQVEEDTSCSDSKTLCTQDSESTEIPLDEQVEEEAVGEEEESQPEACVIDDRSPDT

Thromboxane A2 receptor = target: T3, Thromboxane A2 receptor (Homo sapiens, UniProt P21731)
T3 sequence (P21731 whole entry): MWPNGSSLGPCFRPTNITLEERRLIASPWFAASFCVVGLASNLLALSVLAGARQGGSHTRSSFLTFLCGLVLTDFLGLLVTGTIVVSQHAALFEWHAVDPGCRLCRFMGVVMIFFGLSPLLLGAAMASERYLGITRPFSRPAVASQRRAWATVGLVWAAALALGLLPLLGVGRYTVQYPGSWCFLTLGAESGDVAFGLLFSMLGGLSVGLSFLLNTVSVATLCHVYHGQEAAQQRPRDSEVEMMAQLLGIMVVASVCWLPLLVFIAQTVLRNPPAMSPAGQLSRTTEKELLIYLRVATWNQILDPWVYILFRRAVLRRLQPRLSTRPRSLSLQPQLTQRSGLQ

[5] = target: Sodium-dependent dopamine transporter (Homo sapiens, UniProt Q01959)
Sequence of Sodium-dependent dopamine transporter (Q01959 whole entry): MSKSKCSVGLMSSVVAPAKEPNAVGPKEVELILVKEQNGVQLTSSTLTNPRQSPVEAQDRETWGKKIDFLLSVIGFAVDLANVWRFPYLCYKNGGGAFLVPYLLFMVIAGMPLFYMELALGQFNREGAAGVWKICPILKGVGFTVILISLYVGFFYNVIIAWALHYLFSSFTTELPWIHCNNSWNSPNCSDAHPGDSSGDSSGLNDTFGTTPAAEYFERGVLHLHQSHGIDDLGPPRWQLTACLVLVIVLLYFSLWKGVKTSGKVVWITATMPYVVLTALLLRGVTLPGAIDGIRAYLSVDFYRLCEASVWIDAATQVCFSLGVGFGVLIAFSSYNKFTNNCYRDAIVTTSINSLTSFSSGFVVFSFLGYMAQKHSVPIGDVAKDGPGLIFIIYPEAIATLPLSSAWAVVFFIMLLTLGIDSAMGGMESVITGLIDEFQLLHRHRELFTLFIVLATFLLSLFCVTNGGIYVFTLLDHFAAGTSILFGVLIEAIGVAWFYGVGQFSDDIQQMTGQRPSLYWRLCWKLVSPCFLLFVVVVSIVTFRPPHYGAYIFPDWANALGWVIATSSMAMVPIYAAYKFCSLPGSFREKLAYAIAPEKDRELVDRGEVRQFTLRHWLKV

Adenosine receptor A2a = Adenosine receptor A2a (Homo sapiens, UniProt P29274)
Sequence of Adenosine receptor A2a (P29274 whole entry): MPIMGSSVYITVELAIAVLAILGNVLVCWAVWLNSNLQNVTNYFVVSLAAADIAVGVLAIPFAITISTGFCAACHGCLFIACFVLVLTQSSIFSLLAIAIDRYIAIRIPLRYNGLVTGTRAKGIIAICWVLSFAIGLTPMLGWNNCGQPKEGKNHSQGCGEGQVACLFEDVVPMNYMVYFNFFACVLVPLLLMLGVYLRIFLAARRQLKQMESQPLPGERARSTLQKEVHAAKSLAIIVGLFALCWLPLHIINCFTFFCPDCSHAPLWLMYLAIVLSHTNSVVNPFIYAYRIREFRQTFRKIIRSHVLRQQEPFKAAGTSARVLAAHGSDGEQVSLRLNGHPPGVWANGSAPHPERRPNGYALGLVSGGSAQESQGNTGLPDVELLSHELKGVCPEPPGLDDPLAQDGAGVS

Glucocorticoid receptor = target: T4, Glucocorticoid receptor (Homo sapiens, UniProt P04150)
T4 sequence (P04150 whole entry): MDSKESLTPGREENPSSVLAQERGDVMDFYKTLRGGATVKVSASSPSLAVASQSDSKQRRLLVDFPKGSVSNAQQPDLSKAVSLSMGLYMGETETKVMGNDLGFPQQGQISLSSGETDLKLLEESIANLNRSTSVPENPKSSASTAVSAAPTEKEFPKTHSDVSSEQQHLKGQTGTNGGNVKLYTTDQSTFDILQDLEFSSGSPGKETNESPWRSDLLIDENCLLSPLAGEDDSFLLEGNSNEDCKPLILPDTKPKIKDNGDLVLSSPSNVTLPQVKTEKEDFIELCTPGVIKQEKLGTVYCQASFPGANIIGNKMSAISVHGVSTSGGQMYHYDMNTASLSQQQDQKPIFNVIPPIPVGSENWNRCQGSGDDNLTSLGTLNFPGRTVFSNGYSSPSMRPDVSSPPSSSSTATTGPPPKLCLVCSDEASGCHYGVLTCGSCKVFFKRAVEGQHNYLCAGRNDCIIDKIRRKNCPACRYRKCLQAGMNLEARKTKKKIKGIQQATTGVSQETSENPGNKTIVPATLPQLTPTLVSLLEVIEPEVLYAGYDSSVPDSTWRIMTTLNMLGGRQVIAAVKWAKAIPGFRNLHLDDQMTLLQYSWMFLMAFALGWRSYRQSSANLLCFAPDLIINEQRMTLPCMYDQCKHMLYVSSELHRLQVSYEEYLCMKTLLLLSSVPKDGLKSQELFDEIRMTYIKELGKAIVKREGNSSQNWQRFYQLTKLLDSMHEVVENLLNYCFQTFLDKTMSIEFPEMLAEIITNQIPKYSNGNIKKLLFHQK

[6] = target: Neuronal acetylcholine receptor subunit alpha-4 (Homo sapiens, UniProt P43681)
Sequence of Neuronal acetylcholine receptor subunit alpha-4 (P43681 whole entry): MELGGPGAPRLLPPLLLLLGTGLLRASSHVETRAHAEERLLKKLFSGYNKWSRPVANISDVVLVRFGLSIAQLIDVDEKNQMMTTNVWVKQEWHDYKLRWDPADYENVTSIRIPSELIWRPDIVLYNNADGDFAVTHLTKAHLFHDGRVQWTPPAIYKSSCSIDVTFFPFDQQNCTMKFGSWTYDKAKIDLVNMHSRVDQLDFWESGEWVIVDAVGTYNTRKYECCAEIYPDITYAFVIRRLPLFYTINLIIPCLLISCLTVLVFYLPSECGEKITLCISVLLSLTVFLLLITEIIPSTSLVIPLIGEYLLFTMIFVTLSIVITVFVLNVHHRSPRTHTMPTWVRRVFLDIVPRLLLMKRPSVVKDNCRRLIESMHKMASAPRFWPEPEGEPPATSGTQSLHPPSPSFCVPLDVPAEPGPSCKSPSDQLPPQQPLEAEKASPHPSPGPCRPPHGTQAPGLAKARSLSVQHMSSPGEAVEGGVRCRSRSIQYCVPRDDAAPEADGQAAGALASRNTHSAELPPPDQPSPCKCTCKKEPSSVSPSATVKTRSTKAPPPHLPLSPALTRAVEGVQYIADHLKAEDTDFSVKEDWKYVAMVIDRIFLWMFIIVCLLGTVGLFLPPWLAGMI

Endothelin-1 receptor = target: T5, Endothelin-1 receptor (Homo sapiens, UniProt P25101)
T5 sequence (P25101 whole entry): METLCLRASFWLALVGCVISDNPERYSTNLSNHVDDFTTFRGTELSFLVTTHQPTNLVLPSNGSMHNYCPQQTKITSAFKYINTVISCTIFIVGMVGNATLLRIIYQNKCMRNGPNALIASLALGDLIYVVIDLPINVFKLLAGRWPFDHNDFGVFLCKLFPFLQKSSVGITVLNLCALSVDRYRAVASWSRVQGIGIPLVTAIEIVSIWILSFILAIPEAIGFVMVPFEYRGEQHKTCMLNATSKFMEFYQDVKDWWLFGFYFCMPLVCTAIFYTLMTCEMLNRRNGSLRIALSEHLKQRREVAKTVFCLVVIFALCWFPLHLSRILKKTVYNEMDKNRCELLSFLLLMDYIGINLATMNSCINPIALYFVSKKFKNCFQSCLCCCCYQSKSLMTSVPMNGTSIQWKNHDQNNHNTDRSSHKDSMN

Measured: AC50
Note: assay procedure not described here.

Sequence of 5-hydroxytryptamine receptor 2B (P41595 whole entry): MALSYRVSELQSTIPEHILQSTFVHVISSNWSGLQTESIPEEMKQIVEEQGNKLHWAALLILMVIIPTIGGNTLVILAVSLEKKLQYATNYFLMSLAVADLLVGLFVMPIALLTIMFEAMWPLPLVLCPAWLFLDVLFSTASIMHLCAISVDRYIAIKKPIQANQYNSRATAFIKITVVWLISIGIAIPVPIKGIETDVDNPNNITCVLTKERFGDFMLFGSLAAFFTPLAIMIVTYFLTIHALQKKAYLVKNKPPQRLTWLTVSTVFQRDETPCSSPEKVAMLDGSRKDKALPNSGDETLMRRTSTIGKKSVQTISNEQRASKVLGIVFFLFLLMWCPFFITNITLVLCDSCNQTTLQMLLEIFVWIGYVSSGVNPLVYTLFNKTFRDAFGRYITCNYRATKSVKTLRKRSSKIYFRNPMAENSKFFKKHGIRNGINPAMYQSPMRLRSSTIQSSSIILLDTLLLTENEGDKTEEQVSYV

O=C(C[S+]([O-])C(c1ccccc1)c1ccccc1)NO (stereo not given)
8.9 µM: [4]
9.4 µM: [5]
> 30 µM: all other assays above

C=C1CC[C@@]2(O)[C@H]3Cc4ccc(O)c5c4[C@@]2(CCN3CC2CC2)[C@H]1O5
> 30 µM: all assays above

Nc1ncnc2c1ncn2[C@@H]1O[C@H](COP(=O)(O)O)[C@@H](O)[C@H]1O [ADENOSINE PHOSPHATE]
14 µM: [4]
> 30 µM: all other assays above

COc1ccc2cccc(CCNC(C)=O)c2c1 [AGOMELATINE]
2.07 µM: [1]
> 10 µM: [2] | [5] | [6]
> 30 µM: all other assays above

CCC(C(=O)O)c1ccc(CC(C)C)cc1 (stereo not given) [BUTIBUFEN]
> 30 µM: all assays above

CN(C)C(=O)OC1N=C(c2ccccc2)c2cc(Cl)ccc2N(C)C1=O (stereo not given) [CAMAZEPAM]
> 10 µM: [2] | [5] | [6]
4.3 µM: [4]
18 µM: [1]
> 30 µM: all other assays above

CCOC(=O)[C@H](CCc1ccccc1)N[C@H]1CCCN2CCC[C@@H](C(=O)O)N2C1=O [CILAZAPRIL]
> 30 µM: all assays above

CCOc1cc(N)c([N+](=O)[O-])cc1C(=O)NC1CCN(CC2CC=CCC2)CC1 (stereo not given) [CINITAPRIDE]
0.19 µM: [1]
15 µM: [6]
20 µM: [5]
9.3 µM: [2]
> 30 µM: all other assays above
